ChEMBL document CHEMBL1201862, “PubChem BioAssay data set” (2004)
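A five-concentration, 48-hour dose response in 96-well plates underlies each endpoint, interpolated linearly between surrounding concentrations. The concentration for 50% growth inhibition is given as GI50.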 Active and inactive are the calls of the source. No stated cut-off is given here; in the data, active = GI50 up to about 1.1 µM and inactive = higher.

Experiments:
Assay in all cases: inhibition of tumour cell growth, NCI panel, 48 h
SR = test system: SR
HT-29 = test system: HT-29
SNB-75 = test system: SNB-75
SK-MEL-2 = test system: SK-MEL-2
IGROV-1 = test system: IGROV-1
OVCAR-3 = test system: OVCAR-3
HCT-116 = test system: HCT-116
RXF 393 = test system: RXF 393
UACC-257 = test system: UACC-257
Malme-3M = test system: Malme-3M
EKVX = test system: EKVX
786-0 = test system: 786-0
UACC-62 = test system: UACC-62
U-251 = test system: U-251
MOLT-4 = test system: MOLT-4
SK-OV-3 = test system: SK-OV-3
A498 = test system: A498

Measured: GI50

OC(c1ccccc1)(c1ccccc1)c1ccncc1
inactive: SR > 100 µM | HT-29 > 100 µM | SNB-75 36.6 µM | SK-MEL-2 > 100 µM | IGROV-1 > 100 µM | OVCAR-3 > 100 µM | HCT-116 > 100 µM | RXF 393 > 100 µM | UACC-257 > 100 µM | Malme-3M > 100 µM | EKVX > 100 µM | 786-0 66.1 µM | UACC-62 > 100 µM | U-251 > 100 µM | MOLT-4 > 100 µM | SK-OV-3 > 100 µM

COC(=O)c1csnn1
inactive: SR > 100 µM | HT-29 > 100 µM | IGROV-1 > 100 µM | OVCAR-3 > 100 µM | HCT-116 > 100 µM | UACC-257 > 100 µM | Malme-3M > 100 µM | EKVX > 100 µM | 786-0 > 100 µM | UACC-62 > 100 µM | U-251 > 100 µM | MOLT-4 > 100 µM | SK-OV-3 > 100 µM

N#Cc1nc(Nc2cccc3ccccc23)sc1N
inactive: SR 3.05 µM | HT-29 41.1 µM | SNB-75 42.8 µM | SK-MEL-2 28.5 µM | IGROV-1 45.1 µM | OVCAR-3 44.6 µM | HCT-116 32.1 µM | UACC-257 15.8 µM | Malme-3M 26.2 µM | 786-0 33 µM | UACC-62 21.2 µM | U-251 22.2 µM | MOLT-4 11.5 µM | SK-OV-3 38 µM

COc1ccc(CC2c3c(cc(OC)c(OC)c3OC)CCN2C)cc1OC (stereo unspecified)
inactive: HT-29 > 100 µM | SNB-75 > 100 µM | SK-MEL-2 > 100 µM | OVCAR-3 > 100 µM | HCT-116 > 100 µM | A498 > 100 µM | UACC-257 > 100 µM | Malme-3M > 100 µM | EKVX > 100 µM | 786-0 > 100 µM | U-251 > 100 µM | MOLT-4 > 100 µM

CC(=O)NC(CCCNC(=O)NCCCl)C(=O)NCc1ccccc1 (stereo unspecified)
inactive: SR > 100 µM | HT-29 > 100 µM | SNB-75 > 100 µM | SK-MEL-2 > 100 µM | OVCAR-3 > 100 µM | HCT-116 > 100 µM | RXF 393 > 100 µM | UACC-257 > 100 µM | Malme-3M > 100 µM | EKVX > 100 µM | 786-0 > 100 µM | UACC-62 > 100 µM | U-251 > 100 µM | MOLT-4 > 100 µM

CN1C/C(=C\C=C\c2ccccc2)C(=O)/C(=C/C=C/c2ccccc2)C1
inactive: HT-29 > 100 µM | SNB-75 > 100 µM | SK-MEL-2 > 100 µM | IGROV-1 > 100 µM | OVCAR-3 > 100 µM | HCT-116 > 100 µM | RXF 393 > 100 µM | A498 > 100 µM | UACC-257 > 100 µM | Malme-3M > 100 µM | EKVX > 100 µM | 786-0 87.3 µM | UACC-62 > 100 µM | U-251 > 100 µM | MOLT-4 40.3 µM | SK-OV-3 > 100 µM

CCc1cccc(C)c1NS(=O)(=O)c1ccccc1
inactive: HT-29 > 100 µM | SNB-75 > 100 µM | SK-MEL-2 > 100 µM | IGROV-1 > 100 µM | OVCAR-3 > 100 µM | HCT-116 > 100 µM | RXF 393 > 100 µM | A498 > 100 µM | UACC-257 > 100 µM | Malme-3M > 100 µM | EKVX > 100 µM | 786-0 > 100 µM | UACC-62 > 100 µM | U-251 > 100 µM | MOLT-4 > 100 µM | SK-OV-3 > 100 µM

C/C(=N\NC(C)(C)C)c1sc(-c2nc(C)c(/C(C)=N/NC(C)(C)C)s2)nc1C
inactive: SR > 100 µM | HT-29 > 100 µM | SNB-75 8.32 µM | IGROV-1 > 100 µM | OVCAR-3 > 100 µM | HCT-116 > 100 µM | RXF 393 > 100 µM | A498 > 100 µM | UACC-257 > 100 µM | Malme-3M > 100 µM | EKVX > 100 µM | 786-0 > 100 µM | UACC-62 > 100 µM | U-251 > 100 µM | MOLT-4 > 100 µM | SK-OV-3 > 100 µM

CCOP(=O)(OCC)/C(C#N)=C/c1ccc[nH]1
inactive: SR > 100 µM | HT-29 > 100 µM | SNB-75 55.7 µM | SK-MEL-2 > 100 µM | OVCAR-3 > 100 µM | HCT-116 > 100 µM | RXF 393 > 100 µM | UACC-257 > 100 µM | Malme-3M > 100 µM | 786-0 > 100 µM | UACC-62 > 100 µM | U-251 > 100 µM | MOLT-4 > 100 µM | SK-OV-3 > 100 µM

Cc1ccc(SC2C(C)(C)N(C(C)C)P2(=O)N(C(C)C)C(C)C)cc1 (stereo unspecified)
inactive: SR 14.2 µM | HT-29 26 µM | SNB-75 > 100 µM | SK-MEL-2 67 µM | IGROV-1 > 86.3 µM | OVCAR-3 55.5 µM | HCT-116 26.4 µM | A498 > 100 µM | UACC-257 16.9 µM | Malme-3M > 32.3 µM | EKVX 26.4 µM | 786-0 82.4 µM | UACC-62 42.1 µM | U-251 > 59 µM | MOLT-4 30.2 µM | SK-OV-3 > 100 µM

CCOC(C[C@H](O)[C@H]1COC(=S)S1)OCC
inactive: SR > 100 µM | HT-29 > 100 µM | IGROV-1 > 100 µM | OVCAR-3 > 100 µM | HCT-116 > 100 µM | RXF 393 4.65 µM | UACC-257 > 100 µM | Malme-3M > 100 µM | EKVX > 100 µM | 786-0 > 100 µM | UACC-62 > 100 µM | U-251 > 100 µM | SK-OV-3 > 10 µM

O=C(c1ccccc1)[C@H]1Nc2ccc(Cl)cc2C2c3ccccc3CC21 (stereo partly specified)
inactive: SR 71.6 µM | HT-29 83.9 µM | SNB-75 20.8 µM | SK-MEL-2 67 µM | IGROV-1 > 100 µM | OVCAR-3 21 µM | HCT-116 26 µM | RXF 393 10.5 µM | UACC-257 18.5 µM | Malme-3M > 10 µM | 786-0 30.8 µM | UACC-62 > 10 µM | U-251 47.6 µM | MOLT-4 11.9 µM

CN1C/C(=C\c2ccco2)c2nc(N)nc(-c3ccco3)c2C1
inactive: HT-29 99.8 µM | SNB-75 85.3 µM | SK-MEL-2 > 100 µM | IGROV-1 > 100 µM | OVCAR-3 43.9 µM | HCT-116 > 100 µM | RXF 393 > 100 µM | A498 > 100 µM | UACC-257 > 100 µM | Malme-3M > 100 µM | EKVX > 100 µM | 786-0 > 100 µM | UACC-62 > 100 µM | U-251 > 100 µM | MOLT-4 48.9 µM | SK-OV-3 > 100 µM

C1=CC=C2NCCCCCC/N=C3\C=CC=CC=C3NCCc3cccc(c3)CC/N=C/2C=C1
inactive: SR 9.82 µM | HT-29 6.07 µM | SNB-75 21.3 µM | SK-MEL-2 26.9 µM | IGROV-1 16.9 µM | OVCAR-3 27.7 µM | HCT-116 6.27 µM | RXF 393 13.4 µM | UACC-257 22.8 µM | Malme-3M 35.3 µM | EKVX 37 µM | 786-0 10 µM | UACC-62 21.7 µM | U-251 18.7 µM | MOLT-4 7.78 µM | SK-OV-3 25.5 µM
